In patent US12258339B2, “Macrocyclic complexes of alpha-emitting radionuclides and their use in targeted radiotherapy of cancer” (Cornell University, priority 2018, dated 2025):

Test: In vivo biodistribution of ^225Ac complexes of macropa and DOTA and of ^225Ac(NO3)3 in mice
Parameters: species or system C57BL/6 mice
Method: In Vivo Biodistribution of ^225Ac Complexes of Macropa and DOTA. All experiments were approved by the Institutional Animal Care Committee (IACC) of the University of British Columbia and were performed in accordance with the Canadian Council on Animal Care Guidelines. A total of 9 female C57BL/6 mice (6-8 weeks old, 20-25 g) were used for the biodistribution study of each radiometal complex, n=3 for each time point.
Macropa (100 μL of a 1 mg/mL solution in NH4OAc) was diluted with 387 μL of NH4OAc (1 M, pH 7), and an aliquot (203 μL) of ^225Ac(NO3)3 (˜157 kBq) was then added; the pH of this solution was adjusted to 6.5-7 by the addition of 1 M NaOH (210 μL, trace metal grade). After 5 min at ambient temperature, the reaction solution was analyzed by TLC (0.4 M pH 4 sodium citrate as the eluent), which confirmed >95% radiochemical yield. The reaction was allowed to proceed overnight, and the radiochemical yield was again confirmed to be >95% the following morning. At this time, mice were anesthetized by 2% isoflurane, and approximately 100 μL (10-15 kBq) of the [^225Ac(macropa)]^+ complex were injected into the tail vein of each mouse. After injection, mice were allowed to recover and roam freely in their cages, and were euthanized by CO2 inhalation at 15 min, 1 h, or 5 h (n=3 at each time point) post-injection. Blood was collected by cardiac puncture and placed into an appropriate test tube for scintillation counting. Tissues collected included heart, liver, kidneys, lungs, small intestine, large intestine, brain, bladder, spleen, stomach, pancreas, bone, thyroid, tail, urine, and feces. Tissues were weighed and then counted with a calibrated gamma counter (Packard, Cobra II model 5002) using three energy windows: 60-120 keV (window A), 180-260 keV (window B), and 400-480 keV (window C). Counting was performed both immediately after sacrifice and after 7 days; counts were decay corrected from the time of injection and then converted to the percentage of injected dose (% ID) per gram of tissue (% ID/g). […]
The biodistribution studies of [^225Ac(DOTA)]^− and ^225Ac(NO3)3 were carried out as described above for [^225Ac(macropa)]^+, with the following modifications. [^225Ac(DOTA)^− was prepared by adding ^225Ac(NO3)3 (338 μL, 1.1 MBq) to a solution of DOTA (100 μg, 20 mg/mL in H2O) in NH4OAc (467 μL, 0.15 M, pH 7). The pH of the solution was adjusted to 7 using NH4OAc (150 μL, 1 M, pH 7) and the solution was heated at 85° C. for 45 min. RCY>99% was confirmed by TLC as described above. [^225Ac(DOTA)]^− was diluted with saline to a final concentration of 0.05 MBq/100 μL, and 100 μL were injected into each mouse. ^225Ac(NO3)3 (˜58 μL, 0.4 MBq) was diluted and injected in the same manner as [^225Ac(DOTA)]^−. One mouse that was to be euthanized at the 5 h time point in the [^225Ac(DOTA)]^− study died shortly after injection. In the same manner, one mouse that was to be euthanized at the 1 h time point in the ^225Ac(NO3)3 study died.
The in vivo stability [^225Ac(macropa)]^+ was examined by comparing its biodistribution to those of ^225Ac(NO3)3 and [^225Ac(DOTA)]^−. C57BL/6 mice were injected via tail vein with 10-50 kBq of each radiometal complex and were sacrificed after 15 min, 1 h, or 5 h. The amount of ^225Ac retained in each organ was quantified by gamma counting and reported as the percent of injected dose per gram of tissue (% ID/g). The results of these studies are compiled in Tables 1-3. Inadequate stability of an ^225Ac complex leading to the loss of radioisotope in vivo is manifested by the accumulation of ^225Ac in the liver, spleen, and bone of mice.^[11,12,32] […] The biodistribution profile of [^225Ac(macropa)]^+ (FIG. 3B) differs markedly from that of ^225Ac(NO3)3. […] Its biodistribution profile was similar to that of [^225Ac(DOTA)]^− (FIG. 3C), which has been previously shown to retain ^225Ac in vivo.^[7]

[1] = 15 min after i.v. injection, energy window A (60-120 keV)
[2] = 15 min after i.v. injection, energy window C (400-480 keV)
[3] = 1 h after i.v. injection, energy window A (60-120 keV)
[4] = 1 h after i.v. injection, energy window B (180-260 keV)
[5] = 1 h after i.v. injection, energy window C (400-480 keV)
[6] = 5 h after i.v. injection, energy window A (60-120 keV)
[7] = 5 h after i.v. injection, energy window B (180-260 keV)
[8] = 5 h after i.v. injection, energy window C (400-480 keV)

SMILES: O=C([O-])c1cccc(CN2CCOCCOCCN(Cc3cccc(C(=O)[O-])n3)CCOCCOCC2)n1.[225Ac+3] [[^225Ac(macropa)]^+]
- Organ distribution: brain [1]: 0.26 % ID/g
- Organ distribution: feces [1]: 0.91 % ID/g
- Organ distribution: large intestines [1]: 2.40 % ID/g
- Organ distribution: brain (15 min after i.v. injection, energy window B (180-260 keV)): 0.23 % ID/g
- Organ distribution: brain [2]: 0.17 % ID/g
- Organ distribution: pancreas [2]: 3.00 % ID/g
- Organ distribution: blood [3]: 0.40 % ID/g
- Organ distribution: bone (femur + joint) [3]: 0.31 % ID/g
- Organ distribution: brain [3]: 0.12 % ID/g
- Organ distribution: feces [3]: 0.28 % ID/g
- Organ distribution: heart [3]: 0.31 % ID/g
- Organ distribution: large intestines [3]: 0.36 % ID/g
- Organ distribution: liver [3]: 0.75 % ID/g
- Organ distribution: lungs [3]: 0.51 % ID/g
- Organ distribution: pancreas [3]: 0.19 % ID/g
- Organ distribution: small intestines [3]: 1.10 % ID/g
- Organ distribution: spleen [3]: 0.51 % ID/g
- Organ distribution: stomach [3]: 0.41 % ID/g
- Organ distribution: blood [4]: 0.39 % ID/g
- Organ distribution: bone (femur + joint) [4]: 0.17 % ID/g
- Organ distribution: brain [4]: 0.12 % ID/g
- Organ distribution: feces [4]: 0.27 % ID/g
- Organ distribution: heart [4]: 0.20 % ID/g
- Organ distribution: large intestines [4]: 0.22 % ID/g
- Organ distribution: liver [4]: 0.70 % ID/g
- Organ distribution: lungs [4]: 0.54 % ID/g
- Organ distribution: pancreas [4]: 0.12 % ID/g
- Organ distribution: small intestines [4]: 0.94 % ID/g
- Organ distribution: spleen [4]: 0.23 % ID/g
- Organ distribution: stomach [4]: 0.33 % ID/g
- Organ distribution: thyroids [4]: 0.10 % ID/g
- Organ distribution: bladder [5]: 9.00 % ID/g
- Organ distribution: blood [5]: 0.54 % ID/g
- Organ distribution: bone (femur + joint) [5]: 0.70 % ID/g
- Organ distribution: brain [5]: 0.23 % ID/g
- Organ distribution: feces [5]: 0.69 % ID/g
- Organ distribution: heart [5]: 0.23 % ID/g
- Organ distribution: large intestines [5]: 0.79 % ID/g
- Organ distribution: lungs [5]: 0.84 % ID/g
- Organ distribution: pancreas [5]: 0.43 % ID/g
- Organ distribution: spleen [5]: 0.48 % ID/g
- Organ distribution: stomach [5]: 0.17 % ID/g
- Organ distribution: blood [6]: 0.01 % ID/g
- Organ distribution: bone (femur + joint) [6]: 0.05 % ID/g
- Organ distribution: brain [6]: 0.02 % ID/g
- Organ distribution: heart [6]: 0.10 % ID/g
- Organ distribution: kidneys [6]: 0.74 % ID/g
- Organ distribution: large intestines [6]: 0.49 % ID/g
- Organ distribution: liver [6]: 0.39 % ID/g
- Organ distribution: lungs [6]: 0.01 % ID/g
- Organ distribution: pancreas [6]: 0.10 % ID/g
- Organ distribution: small intestines [6]: 0.29 % ID/g
- Organ distribution: spleen [6]: 0.11 % ID/g
- Organ distribution: stomach [6]: 0.01 % ID/g
- Organ distribution: tail [6]: 0.14 % ID/g
- Organ distribution: thyroids [6]: 0.10 % ID/g
- Organ distribution: blood [7]: 0.00 % ID/g
- Organ distribution: bone (femur + joint) [7]: 0.02 % ID/g
- Organ distribution: brain [7]: −0.01 % ID/g
- Organ distribution: heart [7]: −0.04 % ID/g
- Organ distribution: kidneys [7]: 0.78 % ID/g
- Organ distribution: large intestines [7]: 0.45 % ID/g
- Organ distribution: liver [7]: 0.36 % ID/g
- Organ distribution: lungs [7]: −0.05 % ID/g
- Organ distribution: pancreas [7]: −0.12 % ID/g
- Organ distribution: small intestines [7]: 0.29 % ID/g
- Organ distribution: spleen [7]: 0.09 % ID/g
- Organ distribution: stomach [7]: 0.04 % ID/g
- Organ distribution: tail [7]: 0.13 % ID/g
- Organ distribution: blood [8]: 0.04 % ID/g
- Organ distribution: bone (femur + joint) [8]: 0.08 % ID/g
- Organ distribution: brain [8]: −0.01 % ID/g
- Organ distribution: heart [8]: 0.28 % ID/g
- Organ distribution: large intestines [8]: 0.68 % ID/g
- Organ distribution: liver [8]: 0.55 % ID/g
- Organ distribution: lungs [8]: 0.15 % ID/g
- Organ distribution: pancreas [8]: 0.13 % ID/g
- Organ distribution: small intestines [8]: 0.42 % ID/g
- Organ distribution: spleen [8]: 0.43 % ID/g
- Organ distribution: stomach [8]: 0.13 % ID/g
- Organ distribution: tail [8]: 0.28 % ID/g
- blood clearance and excretion (in words) (i.v. injection, up to 5 h): rapidly cleared from mice
- organ accumulation (in words) (i.v. injection, up to 5 h): did not accumulate in any organ
